Source: patent US11413348B2, “Low molecular weight cationic lipids for oligonucleotide delivery” (SIRNA THERAPEUTICS, INC., priority 2010, dated 2022)

Legend:
[1] = target: T1, serum ApoE (Macaca mulatta, UniProt Q28502); test: Heparin Sepharose HI-TRAP binding assay; parameters: species or system rhesus monkey; details: HI-TRAP binding upon rhesus serum incubation, 2×DPBS conditions
T1 construct: from tissue; host or cells: rhesus monkey serum
Method: Lipid nanoparticles (LNP) with neutral surface charge are not retained after injection onto heparin sepharose with 1× Dulbecco's phosphate buffered saline (DPBS) as the running buffer but elute in the column void volume. […] Lipid nanoparticles with surface bound ApoE bind to heparin sepharose with high affinity and are eluted only at high salt (1M NaCl).
Lipid nanoparticles were incubated at 37° C. for 20 min at a final siRNA concentration of 50 μg/mL with various concentrations of either purified or recombinant human apolipoprotein E or 0.1-50% rat/mouse/rhesus monkey/human serum in 1× Dulbccco's phosphate buffered saline (DPBS). After incubation with ApoE or serum LNP samples were diluted 10-fold using 1×DPBS and analyzed by heparin sepharose chromatography. Peak area of retained LNP (after subtraction of appropriate blank signals) is compared to total peak area of LNP control without ApoE and/or serum incubation to determine the percentage of the LNP which undergoes shift to high affinity heparin interaction after incubation with ApoE/serum.
A heparin sepharose HI-TRAP™ chromatography column (GE Healthcare; 1 mL bed volume) is equilibrated with either 1× or 2× Dulbecco's PBS; the higher 2× salt concentration is used for LNPs with higher intrinsic retention on heparin sepharose (presumably due to higher positive surface charge). • Mobile Phase A: 1× or 2×DPBS • Mobile Phase B: 1M NaCl in 10 mM sodium phosphate buffer, pH 7.0 • 100% A delivered isocratically for 10 min followed by step gradient to 100% B; hold for additional 10 min; step gradient back to 100% A and reequilibrate for additional 10 min prior to injection of next sample • Flow rate: 1 mL/min • Sample injection volume: 50 μL. • Detection: UV @260 nm HI-TRAP™ Binding Results Upon Rhesus Serum Incubation (2×DPBS Conditions)

[2] = Determination of cationic lipid levels in monkey liver (LC/MS-MS); assay type: in vivo; details: monkeys, FIG. 7
Method: Liver tissue was weighed into 20-ml vials and homogenized in 9 v/w of water using a GenoGrinder 2000 (OPS Diagnostics, 1600 strokes/min, 5 min). A 50 μL aliquot of each tissue homogenate was mixed with 300 μL of extraction/protein precipitating solvent (50/50 acetonitrile/methanol containing 500 nM internal standard) and the plate was centrifuged to sediment precipitated protein. A volume of 200 μL of each supernatant was then transferred to separate wells of a 96-well plate and 10 μl samples were directly analyzed by LC/MS-MS.
Standards were prepared by spiking known amounts of a methanol stock solution of compound into untreated rat liver homogenate (9 vol water/weight liver). Aliquots (50 μL) each standard/liver homogenate was mixed with 300 μL of extraction/protein precipitating solvent (50/50 acetonitrile/methanol containing 500 nM internal standard) and the plate was centrifuged to sediment precipitated protein. A volume of 200 μL of each supernatant was transferred to separate wells of a 96-well plate and 10 μl of each standard was directly analyzed by LC/MS-MS.
Absolute quantification versus standards prepared and extracted from liver homogenate was performed using an Aria LX-2 HPLC system (Thermo Scientific) coupled to an API 4000 triple quadrupole mass spectrometer (Applied Biosystems). […]

[3] = test system: CTNNB1 mRNA; test: Rhesus monkey in vivo evaluation of β-catenin efficacy (liver CTNNB1 mRNA); details: beta-catenin siRNA, doses ranging from 0.67-3.34 mg/m^2, intravenous bolus, FIG. 5
Method: On study day −7 predose liver biopsy samples (˜0.5-1 gram/sample) were collected from male rhesus monkeys by laparoscopic surgical resection (resection of one biopsy sample from outer edge of one randomly selected liver lobe per monkey). A 5 mm tissue punch was used to sample three non-adjacent ˜50 mg samples from each predose biopsy. Samples were preserved in RNAlater™ (Ambion) for later CTNNB1 mRNA analysis.
On study day 0 monkeys were administered suspensions of the lipid nanoparticle (LNP) test articles in phosphate buffered saline (0.05-0.1 mg siRNA/mL) via single-dose intravenous bolus injection at target doses of 0.67, 1.34 or 3.34 mg siRNA/m^2. […]
CTNNB1 mRNA levels were measured by relative quantitative RT-PCR using a primer/probe set validated for CTNNB1 and normalized against mRNA levels of peptidylprolyl isomerase B (also known as PPIB or cyclophilin B) and RNA levels of 18S ribosomal RNA (18S rRNA). Change in CTNNB1 mRNA liver expression was measured as the difference in PCR threshold cycle number (ΔΔCt) between post-dose samples and each corresponding monkey's predose liver samples.
Calculation of CTNNB1 mRNA knockdown (with respect to pretreatment levels) was calculated from ΔΔCt using the following relationship: mRNA (% knockdown)=100−(100/2^−ΔΔCt)

T1 sequence (Q28502 19-295): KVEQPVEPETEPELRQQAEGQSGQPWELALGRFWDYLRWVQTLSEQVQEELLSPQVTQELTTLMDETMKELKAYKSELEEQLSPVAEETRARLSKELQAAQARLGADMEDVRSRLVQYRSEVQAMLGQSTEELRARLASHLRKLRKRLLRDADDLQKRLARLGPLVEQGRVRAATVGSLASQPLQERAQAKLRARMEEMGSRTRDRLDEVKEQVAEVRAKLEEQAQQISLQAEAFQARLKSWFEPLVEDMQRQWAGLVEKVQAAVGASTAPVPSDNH

SMILES | % Bound [1] [%] | cationic lipid liver levels compared with RDV containing DLinKC2DMA (Compound 45) or MC3 (Compound 46) [2] | CTNNB1 mRNA knockdown in liver [3]
CCCCCCCCCC(CCCCCCCC1CC1CCCCCCCC)N(C)C [Compound 33, N,N-dimethyl-1-[(1S,2R)-2-octylcyclopropyl]hepladecan-8-amine] | <5 | lower than | robust KD
CCCCC/C=C\C/C=C\CCCCCCCCCC(CCCCCCCCC)CCN(C)C (stereo not drawn) [Compound 32, (13Z,16Z)—N,N-dimethyl-3-nonyldocosa-13,16-dien-1-amine] | 100 | lower than | robust KD
